Source: patent US20120270884A1, “Methods of Treating Aneurysmal Dilatation, Blood Vessel Wall Weakness and Specifically Abdominal Aortic and Thoracic Aneurysm Using Matrix Metalloprotease-2 Inhibitors” (SYMPHONY EVOLUTION, INC., priority 2009, published 2012)

Legend:
ADAM-10 = target: T1, ADAM-10 (UniProt O14672); test: ADAM-10 enzyme assay, cleavage of fluorogenic 10-residue peptide; details: read-out: IC50 ADAM-10; in vitro
T1 sequence (O14672 1-748): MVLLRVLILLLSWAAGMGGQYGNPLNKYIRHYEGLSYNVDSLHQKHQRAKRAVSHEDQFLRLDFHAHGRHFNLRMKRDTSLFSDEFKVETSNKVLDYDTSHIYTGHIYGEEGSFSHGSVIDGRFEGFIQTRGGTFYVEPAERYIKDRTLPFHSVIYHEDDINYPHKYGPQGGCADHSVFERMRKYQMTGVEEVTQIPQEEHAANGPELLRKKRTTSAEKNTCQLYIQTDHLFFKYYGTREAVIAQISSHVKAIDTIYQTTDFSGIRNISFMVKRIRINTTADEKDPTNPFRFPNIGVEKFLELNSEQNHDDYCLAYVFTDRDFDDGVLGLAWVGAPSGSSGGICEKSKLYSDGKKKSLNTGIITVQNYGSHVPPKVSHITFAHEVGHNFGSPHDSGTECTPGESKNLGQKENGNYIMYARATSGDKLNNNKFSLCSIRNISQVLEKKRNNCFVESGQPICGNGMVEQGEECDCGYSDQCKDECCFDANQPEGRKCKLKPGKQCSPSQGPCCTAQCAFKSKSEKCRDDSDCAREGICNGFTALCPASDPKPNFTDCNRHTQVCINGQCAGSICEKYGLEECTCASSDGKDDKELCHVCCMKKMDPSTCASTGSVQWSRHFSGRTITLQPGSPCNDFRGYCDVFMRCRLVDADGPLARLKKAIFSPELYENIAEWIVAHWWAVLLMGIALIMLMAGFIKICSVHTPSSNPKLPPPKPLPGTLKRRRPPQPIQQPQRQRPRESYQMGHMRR
Description: mADAM-10 or hADAM-10 activity was measured as the ability to cleave a 10-residue peptide (DABCYL-Leu-Leu-Ala-Gln-Lys-*-Leu-Arg-Ser-Ser-Arg-EDANS). […] Enzyme was diluted to a final active concentration of 5 nM in Buffer A (50 mM HEPES 8.0, 100 mM NaCl, 1 mM CaCl2 and 0.01% NP-40). Serial dilutions for compounds were performed ranging from 100 μM to 0.5 nM using a Beckman Biomek 2000 in polypropylene plates (Greiner). 20 μl of enzyme solution was added to 10 μl of compound in buffer A, and allowed to incubate for 15 min in 384 well black, Greiner, microtiter plates (#781076). 20 μl of substrate (12.5 μM in Buffer A) was then added, resulting in final reaction conditions of 2 nM ADAM-10, 5 μM substrate, and compound concentrations ranging from 20 uM to 0.1 nM. The reaction was incubated for 2 hr at RT, and fluorescence was measured at Ex355, Em460 on a Wallac Victor 2 fluorescence reader. […] This reaction was incubated for 16 hr at RT and fluorescence was read using identical conditions.

MMP-3 (Stromelysin-1) = MMP-3 (Stromelysin-1) (Homo sapiens, UniProt P08254); test: In vitro metalloprotease inhibition, MMP-3; type: biochemical
Chain of MMP-3 (Stromelysin-1) (P08254 100-477, species assumed): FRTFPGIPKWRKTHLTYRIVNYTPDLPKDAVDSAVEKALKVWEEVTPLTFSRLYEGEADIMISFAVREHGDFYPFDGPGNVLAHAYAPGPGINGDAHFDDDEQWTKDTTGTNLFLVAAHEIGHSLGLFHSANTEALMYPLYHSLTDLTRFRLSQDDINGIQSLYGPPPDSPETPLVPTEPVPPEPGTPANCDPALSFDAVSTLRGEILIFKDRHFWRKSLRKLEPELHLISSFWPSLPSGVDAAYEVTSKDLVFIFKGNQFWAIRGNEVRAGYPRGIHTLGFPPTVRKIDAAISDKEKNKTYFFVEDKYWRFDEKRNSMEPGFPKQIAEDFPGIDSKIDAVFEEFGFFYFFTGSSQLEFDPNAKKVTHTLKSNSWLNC
Description: (§1) Blank cells indicate lack of data only.

MMP-13 (collagenase-3) = MMP-13 (collagenase-3) (Homo sapiens, UniProt P45452); test: In vitro metalloprotease inhibition, MMP-13; type: biochemical
[1] = target: T2, MMP-1 (Fibroblast collagenase) (Homo sapiens, UniProt P03956); test: In vitro metalloprotease inhibition, MMP-1; type: biochemical
T2 sequence (P03956 100-469): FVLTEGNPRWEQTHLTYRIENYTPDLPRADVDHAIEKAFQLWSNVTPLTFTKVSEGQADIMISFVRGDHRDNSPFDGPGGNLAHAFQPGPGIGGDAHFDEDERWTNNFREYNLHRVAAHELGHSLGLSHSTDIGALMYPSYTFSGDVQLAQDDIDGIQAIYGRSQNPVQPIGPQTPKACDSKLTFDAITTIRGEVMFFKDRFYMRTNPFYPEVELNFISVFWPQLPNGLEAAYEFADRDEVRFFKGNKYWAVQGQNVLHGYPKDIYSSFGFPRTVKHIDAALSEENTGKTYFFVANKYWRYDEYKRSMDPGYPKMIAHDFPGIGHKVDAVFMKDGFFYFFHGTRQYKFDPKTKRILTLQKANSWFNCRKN
Description: as §1

[2] = target: T3, MMP-2 (72 kDa gelatinase, gelatinase A) (Homo sapiens, UniProt P08253); test: In vitro metalloprotease inhibition, MMP-2; type: biochemical
T3 sequence (P08253 110-660): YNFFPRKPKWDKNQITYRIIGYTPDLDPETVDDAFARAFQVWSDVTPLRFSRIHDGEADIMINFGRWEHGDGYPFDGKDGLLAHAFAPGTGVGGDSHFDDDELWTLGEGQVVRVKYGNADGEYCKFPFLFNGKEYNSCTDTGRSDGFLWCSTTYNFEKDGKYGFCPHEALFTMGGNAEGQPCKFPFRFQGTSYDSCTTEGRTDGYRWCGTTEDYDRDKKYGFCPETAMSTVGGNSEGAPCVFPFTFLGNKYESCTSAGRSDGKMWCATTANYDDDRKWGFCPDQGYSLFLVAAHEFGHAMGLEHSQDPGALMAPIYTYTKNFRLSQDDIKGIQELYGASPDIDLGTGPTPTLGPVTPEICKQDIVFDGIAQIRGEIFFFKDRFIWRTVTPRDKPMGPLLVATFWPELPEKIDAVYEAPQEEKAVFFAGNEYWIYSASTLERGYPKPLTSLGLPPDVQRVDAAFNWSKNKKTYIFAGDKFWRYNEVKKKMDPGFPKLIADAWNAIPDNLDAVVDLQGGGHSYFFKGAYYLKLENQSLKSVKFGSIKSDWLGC

[3] = target: MMP-9 (92 kDa gelatinase, gelatinase B) (Homo sapiens, UniProt P14780); test: In vitro metalloprotease inhibition, MMP-9; type: biochemical
Chain of MMP-9 (92 kDa gelatinase, gelatinase B) (P14780 94-707, species assumed): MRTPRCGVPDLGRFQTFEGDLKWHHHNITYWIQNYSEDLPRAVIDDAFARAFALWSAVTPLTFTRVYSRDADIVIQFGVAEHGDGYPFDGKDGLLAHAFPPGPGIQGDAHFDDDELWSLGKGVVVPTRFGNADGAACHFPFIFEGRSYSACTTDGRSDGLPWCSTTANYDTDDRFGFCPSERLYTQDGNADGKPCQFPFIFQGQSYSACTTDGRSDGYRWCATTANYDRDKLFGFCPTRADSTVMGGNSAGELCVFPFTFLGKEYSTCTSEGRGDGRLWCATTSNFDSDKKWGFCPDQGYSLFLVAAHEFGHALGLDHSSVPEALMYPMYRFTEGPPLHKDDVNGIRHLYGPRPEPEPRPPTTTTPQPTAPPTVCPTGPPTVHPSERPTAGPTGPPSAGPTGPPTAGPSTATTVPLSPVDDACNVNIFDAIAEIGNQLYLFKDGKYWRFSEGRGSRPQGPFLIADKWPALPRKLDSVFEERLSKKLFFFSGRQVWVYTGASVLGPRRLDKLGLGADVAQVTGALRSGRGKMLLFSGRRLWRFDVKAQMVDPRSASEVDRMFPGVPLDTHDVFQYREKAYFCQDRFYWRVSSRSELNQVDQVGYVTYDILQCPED

[4] = target: TACE (TNF-alpha converting enzyme, ADAM-17) (Homo sapiens, UniProt P78536); test: In vitro metalloprotease inhibition, TACE; type: biochemical
Chain of TACE (TNF-alpha converting enzyme, ADAM-17) (P78536 215-824): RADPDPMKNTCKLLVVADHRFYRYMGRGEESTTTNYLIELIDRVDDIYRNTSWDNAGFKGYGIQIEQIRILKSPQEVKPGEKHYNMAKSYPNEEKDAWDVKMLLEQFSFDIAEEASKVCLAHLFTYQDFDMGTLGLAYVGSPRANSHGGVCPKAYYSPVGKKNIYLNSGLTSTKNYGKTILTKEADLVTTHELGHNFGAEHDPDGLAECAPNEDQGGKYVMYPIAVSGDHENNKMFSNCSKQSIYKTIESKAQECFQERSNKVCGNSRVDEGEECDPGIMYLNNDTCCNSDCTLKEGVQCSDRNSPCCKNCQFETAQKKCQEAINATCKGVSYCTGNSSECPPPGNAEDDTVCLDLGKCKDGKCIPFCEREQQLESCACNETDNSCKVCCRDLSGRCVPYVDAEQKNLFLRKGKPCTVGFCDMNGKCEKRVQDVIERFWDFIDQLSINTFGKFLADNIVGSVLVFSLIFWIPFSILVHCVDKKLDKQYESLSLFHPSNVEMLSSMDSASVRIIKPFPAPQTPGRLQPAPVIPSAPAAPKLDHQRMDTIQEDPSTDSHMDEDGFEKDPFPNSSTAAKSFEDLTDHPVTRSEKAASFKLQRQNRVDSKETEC
Description: as §1

[5] = target: MMP-8 (Neutrophil collagenase) (Homo sapiens, UniProt P22894); test: In vitro metalloprotease inhibition, MMP-8; type: biochemical
Chain of MMP-8 (Neutrophil collagenase) (P22894 101-467, species assumed): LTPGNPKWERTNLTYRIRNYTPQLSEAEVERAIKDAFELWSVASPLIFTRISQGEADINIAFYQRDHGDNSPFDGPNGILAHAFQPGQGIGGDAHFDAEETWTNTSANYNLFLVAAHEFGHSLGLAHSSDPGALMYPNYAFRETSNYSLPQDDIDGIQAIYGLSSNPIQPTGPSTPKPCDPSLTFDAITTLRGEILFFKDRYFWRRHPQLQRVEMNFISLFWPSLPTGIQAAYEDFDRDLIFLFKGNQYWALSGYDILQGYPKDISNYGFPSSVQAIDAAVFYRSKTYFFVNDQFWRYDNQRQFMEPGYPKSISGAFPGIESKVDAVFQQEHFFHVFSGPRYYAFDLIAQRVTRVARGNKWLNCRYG

[6] = tested on: abdominal aorta of C57/B16 mice after elastase perfusion; test: Elastase-perfusion mouse model of AAA; type: in vivo
Description: All mice used in the experiment were commercially obtained C57/B16 inbred strain mice. Throughout the experimental course, mice were allowed free access to food and water. Animals were housed in a controlled animal facility, and all mouse care and treatment occurred under approved protocols.
A total of 89 C57/B16 mice were subjected to transient perfusion of the abdominal aorta according to a protocol known in the art. Briefly, after sedation and preparation, the aorta was approached through a midline laparotomy. The infrarenal aorta was dissected and the diameter was measured under physiologic blood pressure. A segment of infrarenal aorta was isolated and a 5 minute perfusion of this segment was performed through an arteriotomy at 100 mmHg with a solution containing type I porcine pancreatic elastase (PPE 0.16 U/mL). All of the experiments were performed with a single PPE preparation derived from the same commercial source and lot.
Following aortic perfusion the arteriotomy was repaired, the laparotomy was closed and the animal was allowed to completely recover before returning to its standard housing.
Following aortic perfusion, animals were placed into one of 5 treatment groups. […] Three different doses of the agent were used, 50 mg/kg/day (n=17), 125 mg/kg/day (n=17), and 250 mg/kg/day (n=18). There were two mice in each group which died following aortic perfusion, and all others were available for analysis. Control animals (n=18) were similarly treated with daily gavage of the Cremophor diluent only. Of these mice, 16 survived the two weeks following aortic perfusion and underwent final aortic measurements and harvest. […] In this group, 4 mice died prior to the two week harvest, and all others were used in the analysis of aneurysm growth.
Two weeks following elastase perfusion, the mice were again anesthetized; the laparotomy incision was reopened and the final aortic diameter was measured in vivo prior to sacrifice. The animals were humanely sacrificed, and circulating blood and the entire perfused segment of aorta was harvested for RNA extraction, protein extraction or histology.
The aortas from several mice from each experimental group were perfusion fixed with 10% neutral-buffered formalin, removed, and placed in additional formalin for a minimum of 24 hours prior to processing for paraffin embedding. Following paraffin embedding, aortic specimens were cut into 5 μm sections and mounted on glass slides. Each specimen was stained with hematoxylin and eosin to evaluate inflammatory cell infiltration and Accustain® Elastic Stain kit to assess the degree of elastin degradation. Photomicrographs of serial sections were obtained using an Olympus BX60 light microscope equipped with CV12 video capture camera. […]

IC50 (ADAM-10)	IC50 (MMP-3 (Stromelysin-1))	IC50 (MMP-13 (collagenase-3))	IC50 [1]	IC50 [2]	IC50 [3]	IC50 [4]	IC50 [5]	Compound	animals which did not develop aneurysms (% ΔAD not greater than 100%) ([6]; mice, 250 mg/kg/day daily gavage, 2 weeks, not statistically different than controls)	aortic histology: degree of elastin damage and inflammatory cell inflammation ([6]; mice, 50, 125, 250 mg/kg/day daily gavage, aorta at harvest, H&E and VVG stain)	aortic diameters at harvest versus control animals ([6]; mice, all doses (50, 125, 250 mg/kg/day), 2 weeks)	maximal diameters (% ΔAD) of all animals ([6]; mice, low and intermediate dose groups (50 and 125 mg/kg/day), 2 weeks)
< 0.05 µM	< 0.05 µM	< 0.05 µM	1 to 20 µM	< 0.05 µM	–	–	–	O=C(NO)[C@H]1CN(C(=O)c2cc(F)c(O)c(F)c2)CCN1S(=O)(=O)c1cc(F)c(Oc2ccc(Cl)cc2)c(F)c1 [Entry 41]	–	–	–	–
–	0.05 to 1 µM	< 0.05 µM	1 to 20 µM	< 0.05 µM	0.05 to 1 µM	0.05 to 1 µM	< 0.05 µM	O=C(NO)[C@H]1CN(C(=O)N2CCOCC2)CCN1S(=O)(=O)c1cc(F)c(Oc2ccc(Cl)cc2)c(F)c1 [Entry 30]	–	–	–	–
–	0.05 to 1 µM	–	1 to 20 µM	–	–	0.05 to 1 µM	–	COCCOC(=O)N1CCN(S(=O)(=O)c2cc(F)c(Oc3ccc(Cl)cc3)c(F)c2)[C@@H](C(=O)NO)C1 [Entry 15]	12%	inversely correlated with the dose of the agent administered	significantly smaller than control animals	greater than 100%
